Test results reported in patent US20030054549A1, “Stem cell reinforcing material” (priority 2000, published 2003).

Columns and labels:
[1] = tested on: bone marrow hematopoietic stem cells; experiment: Example 4: mouse spleen colony method with radiation exposure and bone marrow transplant, female rats, mixture vs genistein vs 17β estradiole; assay type: in vivo; settings: female ICR, 8 Gy; for spleen weight after radiation exposure per 10 g body weight: day 10 after bone marrow transplant
Method: They were reared with five rats in each group.
With the exception of comparative groups 8 and 9, bone marrow transplant was performed 24 hours after radiation exposure on the rats of comparative groups 10 and 11 as well as those of experimental groups 7, 8, and 9.
Body weight of all rats was determined when rearing was started, after one week, and after two weeks and before bone marrow transplant and on day 5, day 7 and day 10 after transplant.

[2] = tested on: bone marrow hematopoietic cells and reproductive stem cells
Method: 1) Healthy male rats of equal body weight in each group were reared as the sample (male ICR) (six weeks old). They were reared with 10 rats each in comparative groups 3, 4 and 5 as well as experimental group 4 and 5 rats in experimental group 3.
The rats of comparative groups 4 and 5 as well as experimental groups 3 and 4 were systemically exposed one time only to a dose of 8 Gy after three weeks of rearing.
Bone marrow transplant was performed on the rats of each group 24 hours after radiation exposure. In this case, the femur of a donor rat of the same species was cut out. A small piece was cut off from both ends of the femur with a clean bench. Once 1 ml RPMI medium 1640 medium containing 10% antibiotic-antimycotic was injected with a syringe from one end through the medullary cavity, it was pushed into a test tube. The marrow cell count was adjusted to 10^5/ml and 0.5 ml was injected from a caudal vein. The donor rat had been systemically exposed to 2 Gy radiation and reared for three weeks on feed of 1 wt % of the koji mold soybean fermentation and cultivation product added to ordinary food.
All of the rats were sacrificed, the spleen was excised, spleen weight and the number of spleen colonies formed were determined, and the […] were likewise excised and testicle weight was determined after determining body weight on day 7 after bone marrow transplant.
Body weight of all rats was determined before bone marrow transplant and on day 7 after transplant.

## C[C@]12CC[C@@H]3c4ccc(O)cc4CC[C@H]3[C@@H]1CC[C@@H]2O [17β estradiole]
[1]; 10 μg/kg body weight in feed
  spleen weight after radiation exposure per 10 g body weight: lower values than experimental groups 7, 8 and 9
[1]; 10 μg/kg body weight in feed, day 10 after transplant
  spleen colony formation: no augmentation whatsoever

## O=c1c(-c2ccc(O)cc2)coc2cc(O)cc(O)c12 [genistein]
[1]; 30 mg/kg body weight in feed, vs comparative groups 9 and 10
  spleen weight after radiation exposure per 10 g body weight: significantly higher
[1]; 30 mg/kg body weight in feed, day 10 after transplant, vs comparative groups 10 and 11
  number of spleen colonies that formed following transplant after radiation exposure: significantly higher
[1]; 30 mg/kg body weight in feed, judging from day 7 after radiation exposure
  body weight: tendency toward an increase

## CN(C)CCOc1ccc(/C(=C(/CCCl)c2ccccc2)c2ccccc2)cc1 [toremifen]
[2]; male ICR, 30 mg/kg body weight in feed, 8 Gy, day 7 after bone marrow transplant, compared to unexposed comparative group 3
  spleen weight after radiation exposure per 10 g body weight: somewhat lower value than the others
[2]; male ICR, 30 mg/kg body weight in feed, 8 Gy, day 7 after transplant, compared to unexposed comparative group 3
  testicle weight after radiation exposure per 10 g body weight: likewise lower
[2]; rat, in vivo, 30 mg/kg
  toxicity (spleen weight and body weight lower): considerably stronger than isoflavone aglycone
